The test system of the assay is MCH receptors. Description: MCH receptor activity class (method not given).
Setting [1] is: class by percent of control at 10^-7 M or IC50.
[2] abbreviates: class 1-3 by percent of control at 10^-7 M or IC50.
Where [3] appears, read: MCH receptor activity class 1-3 (percent of control at 10^-7 M or IC50).

Like-named read-outs stand apart in the source and are kept apart here.

As to `CC(C)c1ccccc1NC(=O)N[C@H]1CC[C@@H](Nc2nccc(N(C)C)n2)CC1` [compound 2200], the class under setting [1] was 3 (Class 3 The value of percent of control at 10^−7 M was more than 60% or the value of IC50 was more than 200 nM.).

On to `CN(C)c1nc(N[C@H]2CC[C@@H](NC(=O)Cc3ccccc3)CC2)nc2c1CCCC2` [compound 481], for which the class under setting [2] is reported as 3 (Class 3 The value of percent of control at 10^−7 M was more than 60% or the value of IC50 was more than 200 nM.).

In the case of `Cc1cnc(N[C@H]2CC[C@@H](C(=O)N[C@@H](C)c3ccc([N+](=O)[O-])cc3)CC2)nc1N(C)C` [compound 2781, cis-4-{[4-(dimethylamino)-5-methylpyrimidin-2-yl]amino}-N-[(1S)-1-(4-nitrophenyl)ethyl]cyclohexanecarboxamide], the class (class by percent of control at 10^−7 M or IC50) is recorded as 2 (Class 2: The value of percent of control at 10^−7 M was from 40% to 60% or the value of IC′50 was from 50 nM to 200 nM.).

`Cc1cc(N[C@H]2CC[C@@H](NC(=O)c3cccc(C(F)(F)F)c3)CC2)nc2ccccc12` [Example 2546, N-{cis-4-[(4-methylquinolin-2-yl)amino]cyclohexyl}-3-(trifluoromethyl)benzamide]: the class was found to be 3.

With `COc1ccc(NC(=O)N[C@H]2CC[C@@H](Nc3nc4c(c(N(C)C)n3)CCCC4)CC2)cc1OC1CCCC1` [compound 1733], under setting [1], the class was 3 (Class 3 The value of percent of control at 10^−7 M was more than 60% or the value of IC50 was more than 200 nM.).

For the molecule `CN(C)c1nc(N[C@H]2CC[C@@H](NC(=S)Nc3cccc(F)c3)CC2)nc2c1CCCC2` [compound 1984], the class (MCH receptor, class by percent of control at 10^-7 M or IC50) is 3 (Class 3 The value of percent of control at 10^−7 M was more than 60% or the value of IC50 was more than 200 nM.).

As for `CN(C)c1ccnc(N[C@H]2CC[C@@H](CNC(=O)NCc3ccccc3Cl)CC2)n1` [compound 2421], the class under setting [3] was 3 (Class 3 The value of percent of control at 10^−7 M was more than 60% or the value of IC50 was more than 200 nM.).

In the case of `Cc1cc(C)c(NC(=O)Nc2ccc(OC(F)(F)F)cc2)c(C(=O)N[C@H]2CC[C@@H](Nc3nccc(N(C)C)n3)CC2)c1` [compound 857], under setting [1], the class is recorded as 3 (Class 3 The value of percent of control at 10^−7 M was more than 60% or the value of IC50 was more than 200 nM.).

In the case of `COc1cccc(CC(=O)N[C@H]2CC[C@@H](Nc3nc4c(c(N(C)C)n3)CCCC4)CC2)c1` [compound 503], under setting [2], the class is given as 2 (Class 2: The value of percent of control at 10^−7 M was from 40% to 60% or the value of IC′50 was from 50 nM to 200 nM.).

For the molecule `CCOc1ccccc1NC(=S)N[C@H]1CC[C@@H](Nc2nccc(N(C)C)n2)CC1` [compound 2347], the class under setting [3] was 3 (Class 3 The value of percent of control at 10^−7 M was more than 60% or the value of IC50 was more than 200 nM.).

As to `COC(=O)c1ccccc1Sc1nc2sccn2c1CN[C@H]1CC[C@@H](Nc2cc(N(C)C)c3ccccc3n2)CC1` [compound 1116], the class (activity class per percent of control at 10^-7 M or IC50) is reported as 3 (Class 3 The value of percent of control at 10^−7 M was more than 60% or the value of IC50 was more than 200 nM.).

With `COc1cccc(CNC(=O)[C@H]2CC[C@@H](Nc3nc(C)cc(N(C)C)n3)CC2)c1` [Example 2579, cis-4-{[4-(dimethylamino)-6-methylpyrimidin-2-yl]amino}-N-(3-methoxybenzyl)cyclohexanecarboxamide], the class stood at 1.

For the molecule `CN(C)c1ccnc(N[C@H]2CC[C@@H](NC(=O)COCc3ccccc3)CC2)n1` [compound 313], the class under setting [1] is 3 (Class 3 The value of percent of control at 10^−7 M was more than 60% or the value of IC50 was more than 200 nM.).

Consider `CN(C)c1ccnc(N[C@H]2CC[C@@H](NC(=O)COc3cccc(Cl)c3)CC2)n1` [compound 351, 2-(3-chlorophenoxy)-N-(cis-4-{[4-(dimethylamino)pyrimidin-2-yl]amino}cyclohexyl)acetamide], for which, under setting [1], the class was 1 (Class 1: The value of percent of control at 10^−7 M was less than 40% or the value of IC50 was less than 50 nM.).

The values above are taken from US20050197350A1, “Novel quinoline, tetrahydroquinazoline, and pyrimidine derivatives and methods of treatment related to the use thereof” (TAISHO PHARMACEUTICAL CO., LTD., priority 2003, published 2005).
